Key:
Type in all cases: in vivo
[1] = system: Polygonum convolvulus; assay: Pre-emergence herbicidal activity against POLCO; details: dosage 80 g/ha; for pest or weed control at 80 g/ha: Fallopia convolvulus, 504 h
Text: (§1) 1. Pre-Emergence Herbicidal Action and Crop Plant Compatibility Seeds of monocotyledonous and dicotyledonous weed plants and crop plants are placed in plastic or wood fiber pots and covered with soil. The compounds of the invention, formulated in the form of wettable powders (WP) or as emulsion concentrates (EC), are then applied onto the surface of the covering soil as aqueous suspension or emulsion with addition of 0.5% additive at a water application rate of 600 l/ha (converted). After the treatment, the pots are placed in a greenhouse and kept under good growth conditions for the trial plants. After about 3 weeks, the effect of the preparations is scored visually in comparison with untreated controls as percentages. For example, 100% activity=the plants have died, 0% activity=like control plants. POLCO: Polygonum convolvulus SETVI: Setaria viridis

[2] = system: Alopecurus myosuroides; assay: Pre-emergence herbicidal activity against ALOMY; details: dosage 80 g/ha, scored visually after about 3 weeks vs untreated controls (100% = plants have died, 0% = like control plants); for pest or weed control at 80 g/ha: Alopecurus myosuroides, 504 h
Text: as §1, with “ABUTH: Abutilon theophrasti ALOMY: Alopecurus myosuroides” for “POLCO: Polygonum convolvulus SETVI: Setaria viridis”

[3] = system: Avena fatua; assay: Pre-emergence herbicidal activity against AVEFA; details: dosage 80 g/ha; for pest or weed control at 80 g/ha: Avena fatua, 504 h, read-out: Pre-emergence herbicidal activity against AVEVA in % (AVEFA)
Text: as §1, with “AMARE: Amaranthus retroflexus AVEFA: Avena fatua” for “POLCO: Polygonum convolvulus SETVI: Setaria viridis”

[4] = system: Veronica persica; assay: Post-emergence herbicidal activity against VERPE; details: dosage 320 g/ha; for pest or weed control at 320 g/ha: Veronica persica, 504 h
Summary of the method: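 Greenhouse plants treated at one-leaf stage, 2–3 weeks after sowing, by spraying WP or EC formulations with 0.5% additive at 600 l/ha water. Visual rating about 3 weeks later versus untreated controls (100% = plants dead, 0% = like controls).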

[5] = system: Amaranthus retroflexus; assay: Post-emergence herbicidal activity against AMARE; details: dosage 320 g/ha, rated about 3 weeks after treatment; for pest or weed control at 320 g/ha: Amaranthus retroflexus, 504 h
Summary of the method: (§2)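 Greenhouse pots of sandy loam; plants sprayed at one-leaf stage, 2 to 3 weeks after sowing, with WP or EC formulations in water plus 0.5% additive at 600 l/ha. Activity rated visually after about 3 weeks against untreated controls (100% = plants dead, 0% = like control).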

[6] = system: Setaria viridis; assay: Pre-emergence herbicidal activity against SETVI; details: dosage 80 g/ha; for pest or weed control at 80 g/ha: Setaria viridis, 504 h
Text: as §1

[7] = system: Alopecurus myosuroides; assay: Post-emergence herbicidal activity against ALOMY; details: dosage 320 g/ha, rated about 3 weeks after treatment; for pest or weed control at 320 g/ha: Alopecurus myosuroides, 504 h
Summary of the method: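 Greenhouse-grown plants treated at one-leaf stage, 2 to 3 weeks after sowing, with WP or EC formulations sprayed as aqueous suspension/emulsion plus 0.5% additive at 600 l/ha. Activity rated visually about 3 weeks later versus untreated controls (100% = plants dead, 0% = like control).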

[8] = system: Hordeum murinum; assay: Post-emergence herbicidal activity against HORMU; details: dosage 320 g/ha; for pest or weed control at 320 g/ha: Hordeum murinum, 504 h
Summary of the method: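 Greenhouse pot plants sprayed post-emergence at one-leaf stage (2-3 weeks after sowing) with WP or EC formulations, 0.5% additive, 600 l/ha water. Visual rating about 3 weeks later versus untreated controls: 100% = plants dead, 0% = like control.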

[9] = system: Avena fatua; assay: Post-emergence herbicidal activity against AVEFA; details: dosage 320 g/ha, rated about 3 weeks after treatment; for pest or weed control at 320 g/ha: Avena fatua, 504 h
Summary of the method: as §2

| Compound | Pre-emergence herbicidal activity against POLCO in % [1] | Pre-emergence herbicidal activity against ALOMY in % [2] | Pre-emergence herbicidal activity against AVEVA in % (AVEFA) [3] | Post-emergence herbicidal activity against VERPE in % [4] | Post-emergence herbicidal activity against AMARE in % [5] | Pre-emergence herbicidal activity against SETVI in % [6] | Post-emergence herbicidal activity against ALOMY in % [7] | Post-emergence herbicidal activity against HORMU in % [8] | Post-emergence herbicidal activity against AVEFA in % [9] | pest or weed control at 80 g/ha [1] | pest or weed control at 80 g/ha [2] | pest or weed control at 80 g/ha [3] | pest or weed control at 320 g/ha [4] | pest or weed control at 320 g/ha [5] | pest or weed control at 80 g/ha [6] | pest or weed control at 320 g/ha [7] | pest or weed control at 320 g/ha [8] | pest or weed control at 320 g/ha [9] |
| --- | --- | --- | --- | --- | --- | --- | --- | --- | --- | --- | --- | --- | --- | --- | --- | --- | --- | --- |
| CC(C)OC(=O)C1CC(NC(=O)C2(C)CC(c3cc(F)cc(F)c3)=NO2)CO1 (stereo not drawn) [I-44] | 100% | 100% | 90% | 80% | 80% | 100% | 100% | 100% | 100% |  |  |  |  |  |  |  |  |  |
| CC1(C(=O)N[C@H]2CO[C@@H](C(=O)OCc3ccccc3)C2)CC(c2cccc(F)c2)=NO1 (mixture of isomers) [I-34, benzyl cis-4-[[(5RS)-3-(3-fluorophenyl)-5-methyl-4H-isoxazole-5-carbonyl]amino]tetrahydrofuran-2-carboxylate] |  |  |  |  |  |  |  |  |  | 90% | 100% | 80% | 80% | 80% | 90% | 100% | 100% | 100% |
| C=C[C@]1(C(=O)N[C@H]2CO[C@@H](C(=O)OC)C2)CC(c2cc(F)cc(F)c2)=NO1 (mixture of isomers) [I-10, methyl cis-4-[[(5S)-3-(3,5-difluorophenyl)-5-vinyl-4H-isoxazole-5-carbonyl]amino]tetrahydrofuran-2-carboxylate] |  |  |  |  |  |  |  |  |  | 100% | 100% | 100% | 80% | 80% | 100% | 100% | 100% | 100% |
| COC(=O)C1CC(NC(=O)C2(C)CC(c3cc(F)cc(F)c3)=NO2)CO1 (mixture of isomers) [I-48] | 100% | 100% | 100% | 80% | 80% | 100% | 90% | 90% | 80% |  |  |  |  |  |  |  |  |  |
| C=C[C@]1(C(=O)N[C@H]2CO[C@@H](C(=O)OC(C)(C)C)C2)CC(c2cc(F)cc(F)c2)=NO1 (mixture of isomers) [I-38, tert-butyl cis-4-[[(5S)-3-(3,5-difluorophenyl)-5-vinyl-4H-isoxazole-5-carbonyl]amino]tetrahydrofuran-2-carboxylate] |  |  |  |  |  |  |  |  |  | 100% | 100% | 90% | 80% | 100% | 100% | 90% | 90% | 90% |
| C=C[C@]1(C(=O)N[C@H]2CO[C@@H](C(=O)OC(C)C)C2)CC(c2cc(F)cc(F)c2)=NO1 (mixture of isomers) [I-36, isopropyl cis-4-[[(5S)-3-(3,5-difluorophenyl)-5-vinyl-4H-isoxazole-5-carbonyl]amino]tetrahydrofuran-2-carboxylate] |  |  |  |  |  |  |  |  |  | 100% | 100% | 100% | 90% | 90% | 100% | 90% | 90% | 90% |
| CCOC(=O)C1CC(NC(=O)C2(C)CC(c3cc(F)cc(F)c3)=NO2)CO1 (mixture of isomers) [I-43] | 100% | 100% | 100% | 90% | 80% | 100% | 100% | 100% | 100% |  |  |  |  |  |  |  |  |  |
| CC(C)(C)OC(=O)C1CC(NC(=O)C2(C)CC(c3cc(F)cc(F)c3)=NO2)CO1 (mixture of isomers) [I-42] | 100% | 100% | 90% | 80% | 80% | 100% | 100% | 100% | 100% |  |  |  |  |  |  |  |  |  |
| CC1(C(=O)NC2COC(C(=O)OCc3ccccc3)C2)CC(c2cc(F)cc(F)c2)=NO1 (mixture of isomers) [I-45] | 100% | 100% | 100% | 80% | 80% | 100% | 100% | 100% | 100% |  |  |  |  |  |  |  |  |  |
| COC(=O)C1=C[C@@H](NC(=O)C2(C)CC(c3cccc(F)c3)=NO2)CO1 (stereo partly drawn) [I-46, methyl (3R)-3-[[3-(3-fluorophenyl)-5-methyl-4H-isoxazole-5-carbonyl]amino]-2,3-dihydrofuran-5-carboxylate] |  |  |  |  |  |  |  |  |  | 90% | 100% | 80% | 80% | 80% | 100% | 100% | 100% | 100% |
| C=C[C@]1(C(=O)N[C@H]2CO[C@@H](C(=O)OCC)C2)CC(c2cc(F)cc(F)c2)=NO1 (mixture of isomers) [I-35, ethyl cis-4-[[(5S)-3-(3,5-difluorophenyl)-5-vinyl-4H-isoxazole-5-carbonyl]amino]tetrahydrofuran-2-carboxylate] |  |  |  |  |  |  |  |  |  | 100% | 100% | 100% | 80% | 90% | 100% | 100% | 100% | 100% |
| CC1(C(=O)NC2COC(C(=O)O)C2)CC(c2cc(F)cc(F)c2)=NO1 (mixture of isomers) [I-41] | 90% | 100% | 100% | 80% | 100% | 100% | 100% | 100% | 100% |  |  |  |  |  |  |  |  |  |
